Test results from patent EP0217621A2, “Macromolecular tumor cell growth-inhibiting antibiotic” (SMITHKLINE BECKMAN CORPORATION, priority 1985, dated 1987).

Legend:
ADJ-PC6 Plasmacytoma = assay: in vivo ADJ-PC6 Plasmacytoma tumor model; parameters: species or system BALB/c female mice
Method: Likewise, AAC-345, in the form of the crude broth of ATCC 53270 and the purified active component of ATCC 53270, was tested in an additional in vivo tumor model known as ADJ-PC6 Plasmacytoma according to the following assay [see Cleare et al., J. Biochimie, 60, 830-850 (1978)]: • Tumor cells are carried by serial sc passage in BALB/c female mice and then collected aseptically on ca. Day 21 and minced in Hank's balanced salt solution. The cells are then dispersed by homogenizer, and cell concentration is adjusted to 4×10^6 viable (trypan blue-excluding) cells per ml by hemocytometer counts. A total of 0.5 ml (2x10^6 cells) is implanted sc on the right flank of BALB/c female mice in groups of 8. Treatment is given ip on Days 1-10, and tumors are measured in perpendicular diameters with a vernier caliper approximately three (3) weeks after tumor implantation (Days 18-21). Generally, > 75% inhibition of tumor growth reflects significant antitumor effect.

P388 leukemia = assay: in vivo ip P388 leukemia mouse model; parameters: species or system B6D2F1 mice; conditions: positive control, 1 mg/kg/day
Description: P388 lymphocytic leukemia is currently the most widely used animal tumor model for screening for antitumor agents and for detailed evaluation of active compounds. This tumor system is widely accepted as an antitumor agent screening tool because it is sensitive to virtually all of the clinically active antineoplastic agents; quantitative and reproducible: amenable for large-scale screening; and predictive for activity in other animal tumor models. […] Rpts. (Part III), 3, 1-103 (1972)]: • 10^6 P388 leukemia cells are inoculated ip in B6D2F1 mice. Twenty-four hours later, if the tumor inoculum proves to be free of bacterial contamination (as determined by 24 hours incubation in thioglycollate broth), animals are randomized into groups of 6 and housed in shoebox cages. The purified active component of ATCC 53270 was dissolved in 0.9 percent NaCl solution (normal saline) at an appropriate concentration so that the desired dose was delivered in a volume of 0.5 ml. The crude broth of ATCC 53270 was administered undiluted or diluted with normal saline. Such saline solutions were stored in amber bottles at 4°C. The saline solution of the purified active component of ATCC 53270, saline solution of the crude broth of ATCC 53270 or undiluted crude broth of ATCC 53270 are administered ip on Days 1 through 5 (i.e. treatment is initiated 24 hrs after tumor inoculation). […] Animals are weighed as a group on Days 1, 5 and 9 and average weight change (δ wt.) is used as a reflection of toxicity. Each experiment also includes an inoculum titration -- groups of 8 mice inoculated ip with 10^5 to 10^0 P388 leukemia cells. The titration is used to calculate cell kill achieved by treatment with drugs. Animals are monitored daily for mortality and experiments are terminated after 45 days. The endpoint is median survival time (MST) and increase in lifespan (ILS) which is the percentage of increase in MST relative to untreated controls. Untreated controls inoculated ip with 10^6 P388 leukemia cells generally survive for a median of 9 to 11 days. A drug is considered active if it produces > 25 percent ILS.

N.N.[Cl][Pt][Cl] [Cisplatin]
TGI (percent of tumor growth inhibition) (ADJ-PC6 Plasmacytoma; Experiment I, 3 mg/kg/day ip Days 1-10, Day 21): 100% | Mean Tumor Volume (ADJ-PC6 Plasmacytoma; Experiment I, 3 mg/kg/day ip Days 1-10, measured Day 21): 0 ± 0 mm^3 | tumor growth inhibition (ADJ-PC6 Plasmacytoma; positive control, general statement in the method): complete tumor growth inhibition | ILS (increase in lifespan) (P388 leukemia; Experiment I): 117% | Median Survival Time (P388 leukemia; Experiment I): 19.5 days | Weight Change Day 5 (P388 leukemia; Experiment I): -0.2 gm | Weight Change Day 9 (P388 leukemia; Experiment I): +1.4 gm | ILS (increase in lifespan) (P388 leukemia; Experiment II): 89% | Median Survival Time (P388 leukemia; Experiment II): 17 days | Weight Change Day 5 (P388 leukemia; Experiment II): -0.6 gm | Weight Change Day 9 (P388 leukemia; Experiment II): +1.2 gm
